# According to patent publication US20040224943A1, “Method of lowering body temperature with (R) - 2,3-benzodiazepines” (priority 2003, published 2004):
# Tests used:
# [1] = molecular target: peripheral BZ receptors (Homo sapiens, UniProt P30536); settings: cited from earlier work
# [2] = system: central BZ receptors; settings: cited from earlier work
# [3] = system: mice; experiment: Stress Induced Hyperthermia (SIH) assay; assay type: in vivo; settings: for lowering the core body temperature: 64 mg/kg intraperitoneally 60 minutes before T1, at both T1 and T2
# Procedure: In this assay, two successive temperature measurements are performed, the first, a basal measurement and the second, a measurement of a stress-enhanced temperature. The difference between the two measurements (delta T) is compared in animals treated with a test compound versus animals treated with vehicle alone to determine the test compound's activity in lowering body temperature. […] Besides the effect of drugs on the stress-enhanced temperature (T2), this test also directly measures intrinsic effects of drugs on the core body temperature (T1). Thus a test compound that reduces T2 and thus yields a lower delta T has utility in therapies that are directed to lowering the body temperature of an individual, such as perimenopause and menopause.
# Mice, individually housed overnight, were subjected to two sequential rectal temperature measurements ten minutes apart. The first measurement is the basal temperature (T1), the second one the stress-enhanced temperature (T2). The difference (delta T) is the stress-induced hyperthermia. See, Van der Heyden et al., “Stress-induced hyperthermia in singly housed mice,” Physiology and Behavior, 463-470, (1997).
# Test animals (group housed mice) were assigned to five groups of ten animals each. The test groups were dosed according to Table 2 below.
# The test animals were isolated in an experimental room approximately one hour before lights off on the day before the test. On the day of testing, animals were taken quietly from the cage, held in a supine position, the rectal temperature was measured and the animal was placed back into the cage. The same procedure was repeated 10 minutes later. The first temperature (T1), the second temperature (T2) and the difference (delta T) were recorded. The test compounds were administered intraperitonealy 60 minutes before T1, in order to prevent the stress of being injected from affecting the temperature measurements.
# [4] = system: lymphocyte; settings: in vitro, cited from earlier work
# [5] = system: rats; settings: cited from earlier work
# [6] = system: mice; settings: cited from earlier work
# [7] = system: mice; settings: reported in U.S. Pat. No. 4,322,346; cited from earlier work
# Chain of peripheral BZ receptors (P30536 whole entry): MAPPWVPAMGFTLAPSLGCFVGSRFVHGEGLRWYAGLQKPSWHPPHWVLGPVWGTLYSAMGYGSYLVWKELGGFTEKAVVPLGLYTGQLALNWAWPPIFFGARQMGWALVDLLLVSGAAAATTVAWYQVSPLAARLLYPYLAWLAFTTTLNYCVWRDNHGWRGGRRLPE
Structure (SMILES),lowering the core body temperature [3],inhibition of muricide [5],inhibition of aggression [6],also measured
CCC1C(C)=NN=C(c2ccc(OC)c(OC)c2)c2cc(OC)c(OC)cc21 (racemic) [tofisopam],demonstrates activity in lowering the core body temperature,,,binding to peripheral BZ receptors [1]: binds only weakly; interaction with central BZ receptors [2]: does not interact; IL-2 production ([4]; mitogen-induced): enhances; mitogen-induced lymphocyte proliferation [4]: enhances
"CC[C@H]1C(C)=NN=C(c2ccc(OC)c(OC)c2)c2cc(OC)c(OC)cc21 [(R)-tofisopam, (R)-1-(3,4-dimethoxyphenyl)-4-methyl-5-ethyl-7,8-dimethoxy-5H-2,3-benzodiazepine]",demonstrated therapeutic activity,,,"sedation, abnormal gait, ptosis, muscle tone, lacrimation, reactivity to touch ([3]; 64 mg/kg intraperitoneally, compared with (S)-enantiomer or racemate): less sedation, abnormal gait, or ptosis, decreased muscle tone, decreased lacrimation, or decreased reactivity to touch"
"CC[C@@H]1C(C)=NN=C(c2ccc(OC)c(OC)c2)c2cc(OC)c(OC)cc21 [(S)-tofisopam, (S)-1-(3,4-dimethoxyphenyl)-4-methyl-5-ethyl-7,8-dimethoxy-5H-2,3-benzodiazepine]",more active than either the racemate or the (R)-enantiomer,,,
"CCC1C(C)=NN=C(c2ccc(OC)c(OC)c2)c2cc(OC)c(O)cc21 (stereo not drawn) [Compound 1, 1-(3,4-dimethoxyphenyl)-4-methyl-5-ethyl-7-hydroxy-8-methoxy-5H-2,3-benzodiazepine]",,20%,0%,
"CCC1C(C)=NN=C(c2ccc(O)c(OC)c2)c2cc(OC)c(OC)cc21 (stereo not drawn) [Compound 3, 1-(3-methoxy-4-hydroxyphenyl)-4-methyl-5-ethyl-7,8-dimethoxy-5H-2,3-benzodiazepine]",,0%,0%,narcosis-potentiating activity [7]: narcosis-potentiating activity
"CCC1C(C)=NN=C(c2ccc(O)c(OC)c2)c2cc(OC)c(O)cc21 (stereo not drawn) [Compound 5, 1-(3-methoxy-4-hydroxyphenyl)-4-methyl-5-ethyl-7-hydroxy-8-methoxy-5H-2,3-benzodiazepine]",,20%,28.6%,
